Test: n-Octanol/PBS partition coefficient, logP of compound at pH 7.4 incubated for 4 hrs under shaking condition by UV spectrophotometric analysis
Type: physicochemical

SMILES	logD at 4 h
O=C(CCCCCCCC[P+](c1ccccc1)(c1ccccc1)c1ccccc1)NCCCNc1ccc([N+](=O)[O-])c(C(F)(F)F)c1	2.78
O=C(CCCCC[P+](c1ccccc1)(c1ccccc1)c1ccccc1)NCCCNc1ccc([N+](=O)[O-])c(C(F)(F)F)c1	2.39
CC(=O)NCCCNc1ccc([N+](=O)[O-])c(C(F)(F)F)c1	2.03
O=C(CCCCCCCCC[P+](c1ccccc1)(c1ccccc1)c1ccccc1)NCCCNc1ccc([N+](=O)[O-])c(C(F)(F)F)c1	3.24
O=C(CC[P+](c1ccccc1)(c1ccccc1)c1ccccc1)NCCCNc1ccc([N+](=O)[O-])c(C(F)(F)F)c1	1.99
